Source: PubChem BioAssay (NCI)
“And” between values parts separate entries of the source, which are not always exact repeats. Equal values may be shown once.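 96-well plates; 48 h exposure; 5 concentrations. Endpoints by linear interpolation between flanking doses. Not reached: highest tested concentration assigned. The concentration for 50% growth inhibition is given as GI50. TGI: concentration producing complete growth inhibition.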

Legend:
Test in all cases: NCI-60 cell line screen, 48 h
DU-145 prostate = test system: DU-145 prostate
SNB-19 CNS = test system: SNB-19 CNS
LOX IMVI melanoma = test system: LOX IMVI melanoma
NCI-H23 lung = test system: NCI-H23 lung
OVCAR-3 ovarian = test system: OVCAR-3 ovarian
A498 renal = test system: A498 renal
UACC-62 melanoma = test system: UACC-62 melanoma
RXF 393 renal = test system: RXF 393 renal
NCI/ADR-RES ovarian = test system: NCI/ADR-RES ovarian
SK-MEL-2 melanoma = test system: SK-MEL-2 melanoma

SMILES	GI50 (DU-145 prostate)	TGI (DU-145 prostate)	GI50 (SNB-19 CNS)	TGI (SNB-19 CNS)	GI50 (LOX IMVI melanoma)	TGI (LOX IMVI melanoma)	GI50 (NCI-H23 lung)	TGI (NCI-H23 lung)	GI50 (OVCAR-3 ovarian)	TGI (OVCAR-3 ovarian)	GI50 (A498 renal)	TGI (A498 renal)	GI50 (UACC-62 melanoma)	TGI (UACC-62 melanoma)	GI50 (RXF 393 renal)	TGI (RXF 393 renal)	GI50 (NCI/ADR-RES ovarian)	TGI (NCI/ADR-RES ovarian)	GI50 (SK-MEL-2 melanoma)	TGI (SK-MEL-2 melanoma)
O=c1oc2ccc(Cl)cc2c(=O)n1-c1ccc(F)cc1F	3.75 µM	46.6 µM	2.27 µM	> 100 µM	2.4 µM	12.1 µM	1.87 µM	7.24 µM	2.24 µM	18.2 µM	0.372 µM	1.68 µM	0.608 µM	3.84 µM	1.76 µM	5.72 µM	2.63 µM	9.5 µM	1.13 µM	3.97 µM
COc1ccccc1NC(=O)CC(=O)n1nc(C)c(N=Nc2ccccc2Cl)c1C		> 100 µM		> 100 µM		> 100 µM		> 44.7 µM		> 100 µM		> 100 µM		> 100 µM		> 100 µM		> 100 µM		> 100 µM
CCn1c(SCC(=O)Nc2cc(C(F)(F)F)ccc2Cl)nc2ccccc2c1=O	32.3 µM	> 100 µM	32.8 µM	> 100 µM	> 100 µM	> 100 µM	46.9 µM	> 100 µM	43.2 µM	> 100 µM	16.4 µM	59.2 µM	38.4 µM	> 100 µM	15.6 µM	66.9 µM	32.8 µM	> 100 µM	24.6 µM	72.3 µM
O=C(Nc1cccc(C(F)(F)F)c1)c1ccc(NC2=C(Cl)C(=O)N(Cc3ccccc3)C2=O)cc1	3.38 µM	12.3 µM	20.4 µM	40.5 µM	2.45 µM	6.6 µM	4.13 µM	13.4 µM	2.09 µM	4.63 µM	24.4 µM	45.7 µM	12.9 µM	25.5 µM	29.4 µM	64.8 µM	10.8 µM	25.4 µM	7.04 µM	24.2 µM
COc1ccc(CNCCCN2C(=O)c3ccc4c5c(ccc(c35)C2=O)C(=O)N(CCCNCc2ccc(OC)c(OC)c2OC)C4=O)c(OC)c1OC	0.093 µM	0.185 µM	0.0877 µM	0.18 µM	0.0795 µM	0.155 µM	0.0936 µM	0.201 µM	0.0888 µM	0.23 µM	0.61 µM	1.25 µM	0.093 µM	0.182 µM	0.0823 µM	0.176 µM	1.01 µM	3.01 µM	0.0911 µM	0.191 µM
O=[N+]([O-])c1ccc(N=Nc2c(Cl)cc(O)cc2Cl)cc1	2.45 µM	11.9 µM	1.94 µM	15.7 µM	1.73 µM	10.6 µM	1.72 µM	6.71 µM	0.462 µM	2.47 µM	1.73 µM	4.6 µM	1.39 µM	3.59 µM	2.51 µM	13.5 µM	0.863 µM	8.49 µM	1.66 µM	4.39 µM
Cc1ccc(-c2nc(/C=N/Nc3cc(C)nc4ccc(Br)cc34)c(C)o2)cc1	1.8 µM	3.36 µM	1.86 µM	3.48 µM	1.88 µM	3.57 µM	2.09 µM	4.75 µM	1.88 µM	3.36 µM	3.73 µM	20.4 µM	1.73 µM	3.36 µM	1.65 µM	3.22 µM	1.99 µM	4.46 µM	19.7 µM	41.2 µM
COc1ccc(C2CC(c3ccc(OC)cc3O)=NN2c2ccc(S(N)(=O)=O)cc2)cc1 (stereo not given)	44.5 µM	> 100 µM	27.3 µM	> 100 µM	14.1 µM	> 100 µM	20.5 µM	> 100 µM	12.2 µM	> 100 µM	13.1 µM	80.2 µM	8.76 µM	> 100 µM	25.6 µM	> 100 µM	8.09 µM	> 100 µM	17.1 µM	85.9 µM
COc1c(C)c(OC)c(C(=O)CC(C)C)c(OC)c1C		> 100 µM		> 100 µM		> 100 µM		> 100 µM		> 100 µM		> 100 µM		> 100 µM		> 100 µM		> 100 µM		> 100 µM
FC(F)(F)c1nc(SCc2ccc(Cl)cc2)n[nH]1		> 100 µM		> 100 µM		> 100 µM		> 100 µM		> 100 µM		> 100 µM		> 100 µM		> 100 µM		> 100 µM		> 100 µM
CCc1[nH]nc(C(N)=O)c1N=NN(C)C		> 100 µM		> 100 µM		> 100 µM		> 100 µM		> 100 µM		> 100 µM		> 100 µM		> 100 µM		> 100 µM		> 100 µM
O=C(c1ccccc1)C1OC1C(=O)c1ccccc1 (stereo not given)	1.32 µM	4.28 µM	14.1 µM	> 100 µM	2.75 µM	11.7 µM	2.33 µM	10.8 µM	1.77 µM	6.7 µM	19.7 µM	> 100 µM	2.91 µM	15.9 µM	2.37 µM	10.2 µM	1.88 µM	> 100 µM	2.66 µM	9.53 µM
O=C1/C(=C/c2ccc(F)cc2)CN(C(=O)C(Cl)Cl)C/C1=C\c1ccc(F)cc1	0.671 µM	1.74 µM	0.287 µM	1.25 µM	0.0346 µM	0.0974 µM	0.259 µM	0.774 µM	0.262 µM	0.778 µM	0.404 µM	1.54 µM	0.237 µM	0.641 µM	0.445 µM	0.968 µM	0.327 µM	1.71 µM	0.94 µM	2.9 µM
CCCS(=O)(=O)Nc1cccc(Nc2ncnc3cc(NC(=O)CCl)ccc23)c1Cl	3.09 µM	6.31 µM	1.35 µM	4.58 µM	0.892 µM	3.9 µM	1.26 µM	5.25 µM	2.98 µM	6.62 µM	5.47 µM	11 µM	0.871 µM	3.68 µM	3.26 µM	7.13 µM	6.95 µM	25 µM	3.58 µM	8.92 µM
COc1cc(NS(C)(=O)=O)ccc1Cc1c2ccccc2nc2ccccc12	0.0571 µM	0.649 µM	0.134 µM	3.35 µM	0.0793 µM	1.48 µM	0.137 µM	1.48 µM	0.785 µM	2.06 µM	0.135 µM	1.15 µM	0.101 µM	1.67 µM	0.396 µM	2.06 µM	1.44 µM	10 µM	1.43 µM	3.2 µM
CC1=C2[C@@H](CC1)[C@]1(C)O[C@@](C(C)C)(C[C@H]1OC(=O)CO)[C@H]2OC(=O)CCCc1ccccc1	8.82 µM	20.9 µM	12.4 µM	24.9 µM	5.88 µM	18.5 µM	11.3 µM	27.6 µM	6.94 µM	22.5 µM	6.4 µM	19.6 µM	3.42 µM	13.2 µM	11.9 µM	25.6 µM	3.87 µM	20 µM	11.7 µM	27.2 µM
CC1OC(CC(=O)O)Cc2c1c(O)c1c(O)cc(-c3cc(=O)c4c(=O)c5c(c(=O)c=4c3=O)CC(CC(=O)O)OC5C)c(O)c1c2O (stereo not given)	26.2 µM	96.2 µM	66.6 µM	> 100 µM		36.5 µM	32.7 µM	33.9 µM	37 µM	> 58.6 µM		58.9 µM	48.9 µM	17.7 µM	12 µM	20.3 µM and 27 µM	59.6 µM		27.7 µM	48.2 µM and 62.5 µM
CCOC(=O)Nc1ccc2c(c1)C(=O)N(CC)c1ccccc1O2	0.127 µM		0.268 µM	> 100 µM	0.198 µM	> 100 µM	0.542 µM	> 100 µM	0.0788 µM	0.612 µM	0.0786 µM	11.8 µM	0.101 µM	> 100 µM	0.0277 µM	54.9 µM	0.124 µM	> 100 µM	0.102 µM	> 100 µM
O=C(Nc1cn[nH]c1-c1nc2ccc(CN3CCOCC3)cc2[nH]1)NC1CC1	2.6 µM and > 10 µM	14.7 µM and > 10 µM	1.16 µM and 2.62 µM	11.3 µM and > 10 µM	0.324 µM and 0.604 µM	1.88 µM and > 10 µM	1.45 µM and 7.06 µM	5.16 µM and > 10 µM	0.306 µM and 1.32 µM	6.3 µM and 6.7 µM	0.373 µM	3.91 µM	1.37 µM and 3.81 µM	3.5 µM and > 10 µM	0.241 µM and 0.287 µM	1.79 µM and 2.17 µM	12.1 µM and > 10 µM	> 86.7 µM	1.35 µM and > 10 µM	3.94 µM and > 10 µM
C=CCOc1ccc(N)c([N+](=O)[O-])c1		> 100 µM		> 100 µM		> 100 µM		> 100 µM				> 100 µM		> 100 µM		> 100 µM		> 100 µM		> 100 µM
